Experimental data as given in article PMC11861906, “Structural basis for lipid-mediated activation of G protein-coupled receptor GPR55” (Nature Communications, 2025).

Assays:
Format in all cases: cell-based
[1] = target: GPR55 mutant N171Q (Gα13) (Homo sapiens, UniProt Q9Y2T6, N171Q); test: BRET² G protein dissociation assay, GPR55 N171Q with Gα13
Source text: (§1) To validate the functionality of the GPR55 cryo-EM construct, we conducted bioluminescence resonance energy transfer 2 (BRET²)-based G protein dissociation assays[46],[47] using an engineered heterotrimeric G13 protein. The N-terminal GFP fusion of the receptor was additionally modified with a G67A mutation to disrupt fluorescence properties. We employed human embryonic kidney (HEK) cells overexpressing wt or mutant GPR55 together with Gβ3, Gγ9-GFP, and Gα13 tagged with Renilla luciferase 8 (Rluc8).
(§2) G protein dissociation assays were performed according to the original protocols of the TRUPATH BRET² assay[47],[87] but with subtle modifications as previously described[61],[88],[89]. All reagents and cells were obtained from Thermo Fisher Scientific unless indicated otherwise. The coding sequences for the G protein biosensors[47] (Gα12-Rluc8, Gα13-Rluc8, wt Gβ3, and Gγ9-GFP), the wt GPR55, the construct used for cryo-EM (with GFP bearing a G67A mutation to disrupt fluorescence properties[48] for BRET² assays), GPR55 binding pocket mutants (G152^4.56F, G152^4.56W, N171^ECL2Q, N171^ECL2A, T176^5.33A, R253^6.62A), and the wt TBXA2R were codon-optimized for Homo sapiens, gene-synthesized, and sub-cloned into pcDNA^TM3.1(+) between NheI and HindIII restriction sites by GeneArt (Thermo Fisher Scientific). […] Freshly grown cells were washed with Dulbecco’s Balanced Salt Solution (DPBS, cat. #14200075) and detached using trypsin-ethylenediaminetetraacetic acid (trypsin-EDTA) (cat. #25300-062). Then, the cells were reconstituted to 500,000 cells per mL with fresh medium, and 1,000,000 cells were seeded into each well of a 6-well plate. After 3 h incubation at 37 °C and 5% CO2, adherent cells were transfected with 600 ng DNA (1:1:1:1 ratio of plasmid DNA for GPR55, wt Gβ3, Gγ9-GFP, and Gα12-Rluc8 or Gα13-Rluc8). Plasmid DNA was mixed with 1.5 µL Lipofectamine^TM 2000 (cat. #11668027) in Opti-MEM^TM medium (cat. #31985062) and incubated for 20 min. Then, the mixture was added to each well of the 6-well plate following 24 h incubation at 37 °C and 5% CO2. Transfected cells were washed with DPBS, detached using EDTA (Versene, cat. #15040066), and reconstituted into fresh medium at 500,000 cells mL^−1. From this suspension, 50,000 cells were seeded into each well of a white-bottom 96-well plate (Nunc^TM MicroWell^TM 96 wells, cat. #136101) following overnight incubation at 37 °C and 5% CO2. Then, the adherent cells were washed with assay medium [Hank’s balanced salt solution (HBSS, cat. #14065056) plus 20 mM HEPES pH 7.4 (cat. #15630056)] and finally reconstituted into 50 µL of the same medium. […] Methoxy e-Coelenterazine was used as luciferase substrate (Prolume Purple, NanoLight Technology, cat. #369), reconstituted at 1 mM in methanol and diluted to 37.5 µM with assay buffer (7.5 µM final assay concentration). The assay was started by the addition of 20 µL luciferase substrate to each well of the assay plate using a Multidrop^TM Combi reagent dispenser (Thermo Fisher Scientific), followed by 5 min incubation at room temperature. Then, 30 µL of agonist dilutions or DMSO control was added (final DMSO concentration 1.5%), followed by an additional 5 min incubation at room temperature. BRET² measurements were performed with a PHERAstar® FSX microplate reader (BMG LABTECH) using a BRET² filter (donor emission 370–450 nm, acceptor emission 500–530 nm) at the maximum fluorescence gain of 3600. BRET² ratios were calculated by dividing GFP emission signals from Rluc8 emission counts. Buffer-DMSO controls were subtracted from each data point to calculate ΔBRET² ratios.

[2] = target: GPR55 mutant G152W (Gα13) (Homo sapiens, UniProt Q9Y2T6, G152W); test: BRET² G protein dissociation assay, GPR55 G152W with Gα13
Chain of GPR55 mutant G152W (Gα13) (Q9Y2T6 whole entry G152W): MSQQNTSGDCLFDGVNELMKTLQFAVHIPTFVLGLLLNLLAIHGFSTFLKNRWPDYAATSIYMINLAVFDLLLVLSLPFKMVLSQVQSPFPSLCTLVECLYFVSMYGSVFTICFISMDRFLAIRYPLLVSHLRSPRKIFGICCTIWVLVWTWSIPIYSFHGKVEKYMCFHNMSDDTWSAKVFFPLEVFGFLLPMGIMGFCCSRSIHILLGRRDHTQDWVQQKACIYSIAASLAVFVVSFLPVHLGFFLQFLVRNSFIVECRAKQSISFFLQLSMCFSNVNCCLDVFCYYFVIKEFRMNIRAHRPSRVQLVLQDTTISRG
Chain of GPR55 mutant G152W (Gα13) (Q14344 whole entry partner): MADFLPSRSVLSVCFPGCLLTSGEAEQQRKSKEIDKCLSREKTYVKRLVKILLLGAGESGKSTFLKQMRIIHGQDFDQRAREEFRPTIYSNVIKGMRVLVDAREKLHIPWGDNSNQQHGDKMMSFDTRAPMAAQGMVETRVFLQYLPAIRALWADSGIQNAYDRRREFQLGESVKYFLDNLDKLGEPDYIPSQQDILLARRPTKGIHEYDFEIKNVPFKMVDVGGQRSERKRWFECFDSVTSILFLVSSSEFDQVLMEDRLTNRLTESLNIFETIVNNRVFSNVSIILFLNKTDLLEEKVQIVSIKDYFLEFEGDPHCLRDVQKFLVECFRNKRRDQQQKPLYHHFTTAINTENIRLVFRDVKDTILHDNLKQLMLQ
Chain of GPR55 mutant G152W (Gα13) (P16520 whole entry partner): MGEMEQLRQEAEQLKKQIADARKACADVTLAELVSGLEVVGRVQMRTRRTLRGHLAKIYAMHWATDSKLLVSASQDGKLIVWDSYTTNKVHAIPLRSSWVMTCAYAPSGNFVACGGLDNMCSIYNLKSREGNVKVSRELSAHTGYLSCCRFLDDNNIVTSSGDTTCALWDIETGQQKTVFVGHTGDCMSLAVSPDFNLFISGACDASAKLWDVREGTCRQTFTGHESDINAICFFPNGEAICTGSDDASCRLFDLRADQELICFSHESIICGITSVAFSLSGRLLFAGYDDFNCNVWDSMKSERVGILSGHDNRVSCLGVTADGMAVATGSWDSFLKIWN
Chain of GPR55 mutant G152W (Gα13) (O14610 1-66 partner limits assumed): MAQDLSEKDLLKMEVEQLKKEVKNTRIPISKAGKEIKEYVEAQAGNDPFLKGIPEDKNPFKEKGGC
Source text: as §1, §2

[3] = target: GPR55 mutant G152F (Gα13) (Homo sapiens, UniProt Q9Y2T6, G152F); test: BRET² G protein dissociation assay, GPR55 G152F with Gα13
Chain of GPR55 mutant G152F (Gα13) (Q9Y2T6 whole entry G152F): as the sequence (Q9Y2T6 whole entry G152W) above, with W152F counted along it
Chain of GPR55 mutant G152F (Gα13) (Q14344 whole entry partner): as the sequence (Q14344 whole entry partner) above
Chain of GPR55 mutant G152F (Gα13) (P16520 whole entry partner): as the sequence (P16520 whole entry partner) above
Chain of GPR55 mutant G152F (Gα13) (O14610 1-66 partner limits assumed): as the sequence (O14610 1-66 partner limits assumed) above
Source text: as §1, §2

Chain of GPR55 mutant N171Q (Gα13) (Q9Y2T6 whole entry N171Q, the tested form may be a part): as the sequence (Q9Y2T6 whole entry G152W) above, with W152G, N171Q counted along it
Chain of GPR55 mutant N171Q (Gα13) (Q14344 whole entry partner, the tested form may be a part): as the sequence (Q14344 whole entry partner) above
Chain of GPR55 mutant N171Q (Gα13) (P16520 whole entry partner, the tested form may be a part): as the sequence (P16520 whole entry partner) above
Chain of GPR55 mutant N171Q (Gα13) (O14610 1-66 partner limits assumed): as the sequence (O14610 1-66 partner limits assumed) above

Mean (plotted) BRET² response, GPR55-N171Q-G13 ([1]; Concentration 10 pM): 0.0013
Mean (plotted) BRET² response, GPR55-N171Q-G13 ([1]; Concentration 30 pM): 0.00095
Mean (plotted) BRET² response, GPR55-N171Q-G13 ([1]; Concentration 100 pM): 0.00685
Mean (plotted) BRET² response, GPR55-N171Q-G13 ([1]; Concentration 300 pM): -0.0003198
Mean (plotted) BRET² response, GPR55-N171Q-G13 ([1]; Concentration 1e-9 M): 0.003698
Mean (plotted) BRET² response, GPR55-N171Q-G13 ([1]; Concentration 3e-9 M): 0.002984
Mean (plotted) BRET² response, GPR55-N171Q-G13 ([1]; Concentration 1e-8 M): -0.00933
Mean (plotted) BRET² response, GPR55-N171Q-G13 ([1]; Concentration 3e-8 M): 0.006599
Mean (plotted) BRET² response, GPR55-N171Q-G13 ([1]; Concentration 1e-7 M): 0.005054
Mean (plotted) BRET² response, GPR55-N171Q-G13 ([1]; Concentration 3e-7 M): 0.005811
Mean (plotted) BRET² response, GPR55-N171Q-G13 ([1]; Concentration 1e-6 M): 0.005259
Mean (plotted) BRET² response, GPR55-N171Q-G13 ([1]; Concentration 3e-6 M): -0.001778
Mean (plotted) BRET² response, GPR55-N171Q-G13 ([1]; Concentration 1e-5 M): 0.001984
Mean (plotted) BRET² response, GPR55-N171Q-G13 ([1]; Concentration 3e-5 M): -0.005542
Mean (plotted) BRET² response, GPR55-G152W-G13 ([2]; Concentration 10 pM): 0.00225
Mean (plotted) BRET² response, GPR55-G152W-G13 ([2]; Concentration 30 pM): -0.00435
Mean (plotted) BRET² response, GPR55-G152W-G13 ([2]; Concentration 100 pM): -0.00495
Mean (plotted) BRET² response, GPR55-G152W-G13 ([2]; Concentration 300 pM): -0.0004516
Mean (plotted) BRET² response, GPR55-G152W-G13 ([2]; Concentration 1e-9 M): -0.001887
Mean (plotted) BRET² response, GPR55-G152W-G13 ([2]; Concentration 3e-9 M): 7.154e-5
Mean (plotted) BRET² response, GPR55-G152W-G13 ([2]; Concentration 1e-8 M): -0.01413
Mean (plotted) BRET² response, GPR55-G152W-G13 ([2]; Concentration 3e-8 M): -6.439e-5
Mean (plotted) BRET² response, GPR55-G152W-G13 ([2]; Concentration 1e-7 M): 0.001032
Mean (plotted) BRET² response, GPR55-G152W-G13 ([2]; Concentration 3e-7 M): 0.002926
Mean (plotted) BRET² response, GPR55-G152W-G13 ([2]; Concentration 1e-6 M): -0.00228
Mean (plotted) BRET² response, GPR55-G152W-G13 ([2]; Concentration 3e-6 M): -0.002139
Mean (plotted) BRET² response, GPR55-G152W-G13 ([2]; Concentration 1e-5 M): -0.008827
Mean (plotted) BRET² response, GPR55-G152W-G13 ([2]; Concentration 3e-5 M): -0.0048
Mean (plotted) BRET² response, GPR55-G152F-G13 ([3]; Concentration 10 pM): -0.003
Mean (plotted) BRET² response, GPR55-G152F-G13 ([3]; Concentration 30 pM): 0.00205
Mean (plotted) BRET² response, GPR55-G152F-G13 ([3]; Concentration 100 pM): 0.0008
Mean (plotted) BRET² response, GPR55-G152F-G13 ([3]; Concentration 300 pM): -0.003135
Mean (plotted) BRET² response, GPR55-G152F-G13 ([3]; Concentration 1e-9 M): 0.0004643
Mean (plotted) BRET² response, GPR55-G152F-G13 ([3]; Concentration 3e-9 M): -0.004129
Mean (plotted) BRET² response, GPR55-G152F-G13 ([3]; Concentration 1e-8 M): -0.009075
Mean (plotted) BRET² response, GPR55-G152F-G13 ([3]; Concentration 3e-8 M): -0.001052
Mean (plotted) BRET² response, GPR55-G152F-G13 ([3]; Concentration 1e-7 M): -0.0003089
Mean (plotted) BRET² response, GPR55-G152F-G13 ([3]; Concentration 3e-7 M): -0.001149
Mean (plotted) BRET² response, GPR55-G152F-G13 ([3]; Concentration 1e-6 M): -0.0006267
Mean (plotted) BRET² response, GPR55-G152F-G13 ([3]; Concentration 3e-6 M): -0.009104
Mean (plotted) BRET² response, GPR55-G152F-G13 ([3]; Concentration 1e-5 M): -0.008346
Mean (plotted) BRET² response, GPR55-G152F-G13 ([3]; Concentration 3e-5 M): -0.007499
Compound: CCCCC[C@H](O)/C=C/[C@@H]1[C@@H](C/C=C\CCCC(=O)O)[C@H]2CO[C@@H]1C2 [U-46619]
